Measurements as given in PubChem BioAssay (NCI).
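Growth conditions: 96-well plates. Treatment: test compound, 48 hours, 5 concentrations. Analysis: linear interpolation between bracketing concentrations; unreached endpoints set to highest concentration. The concentration for full growth arrest is given as TGI.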

Key:
Test in all cases: growth of human tumour cells (NCI), 48 h
786-0 renal = test system: 786-0 renal
A549 NSCLC = test system: A549 NSCLC
ACHN renal = test system: ACHN renal
CAKI-1 renal = test system: CAKI-1 renal
CCRF-CEM leukemia = test system: CCRF-CEM leukemia
COLO 205 colon = test system: COLO 205 colon
DLD-1 colon = test system: DLD-1 colon
DMS 114 small cell lung = test system: DMS 114 small cell lung
DMS 273 small cell lung = test system: DMS 273 small cell lung
EKVX NSCLC = test system: EKVX NSCLC
HCC-2998 colon = test system: HCC-2998 colon
HCT-116 colon = test system: HCT-116 colon
HCT-15 colon = test system: HCT-15 colon
HL-60(TB) leukemia = test system: HL-60(TB) leukemia
HOP-18 NSCLC = test system: HOP-18 NSCLC
HOP-62 NSCLC = test system: HOP-62 NSCLC
HOP-92 NSCLC = test system: HOP-92 NSCLC
HT29 colon = test system: HT29 colon
IGROV1 ovarian = test system: IGROV1 ovarian
K-562 leukemia = test system: K-562 leukemia
KM12 colon = test system: KM12 colon
KM20L2 colon = test system: KM20L2 colon
LOX IMVI melanoma = test system: LOX IMVI melanoma
LXFL 529 NSCLC = test system: LXFL 529 NSCLC
M14 melanoma = test system: M14 melanoma
M19-MEL melanoma = test system: M19-MEL melanoma
MALME-3M melanoma = test system: MALME-3M melanoma
MOLT-4 leukemia = test system: MOLT-4 leukemia
NCI-H23 lung = test system: NCI-H23 lung
NCI-H460 lung = test system: NCI-H460 lung
OVCAR-3 ovarian = test system: OVCAR-3 ovarian
OVCAR-4 ovarian = test system: OVCAR-4 ovarian
OVCAR-5 ovarian = test system: OVCAR-5 ovarian
OVCAR-8 ovarian = test system: OVCAR-8 ovarian
RPMI-8226 leukemia = test system: RPMI-8226 leukemia
RXF 393 renal = test system: RXF 393 renal
RXF-631 renal = test system: RXF-631 renal
SF-268 CNS = test system: SF-268 CNS
SF-295 CNS = test system: SF-295 CNS
SF-539 CNS = test system: SF-539 CNS
SK-MEL-2 melanoma = test system: SK-MEL-2 melanoma
SK-MEL-28 melanoma = test system: SK-MEL-28 melanoma
SK-MEL-5 melanoma = test system: SK-MEL-5 melanoma
SK-OV-3 ovarian = test system: SK-OV-3 ovarian
SN12C renal = test system: SN12C renal
SNB-19 CNS = test system: SNB-19 CNS
SNB-75 CNS = test system: SNB-75 CNS
SNB-78 CNS = test system: SNB-78 CNS
SR leukemia = test system: SR leukemia
SW-620 colon = test system: SW-620 colon
TK-10 renal = test system: TK-10 renal
U251 CNS = test system: U251 CNS
UACC-257 melanoma = test system: UACC-257 melanoma
UACC-62 melanoma = test system: UACC-62 melanoma
UO-31 renal = test system: UO-31 renal
XF 498 CNS = test system: XF 498 CNS
A498 renal = test system: A498 renal
NCI-H226 lung = test system: NCI-H226 lung
NCI-H522 lung = test system: NCI-H522 lung

COc1ccc(/C=N/Nc2nc(-c3cc4oc(=O)n(C)c4cc3Cl)cs2)cc1OC
TGI (786-0 renal): > 100 µM | TGI (A549 NSCLC): 36.2 µM | TGI (ACHN renal): 62.3 µM | TGI (CAKI-1 renal): > 100 µM | TGI (CCRF-CEM leukemia): > 100 µM | TGI (COLO 205 colon): > 100 µM | TGI (DLD-1 colon): > 100 µM | TGI (DMS 114 small cell lung): 39 µM | TGI (DMS 273 small cell lung): > 100 µM | TGI (EKVX NSCLC): > 100 µM | TGI (HCC-2998 colon): > 100 µM | TGI (HCT-116 colon): > 100 µM | TGI (HCT-15 colon): 91.8 µM | TGI (HL-60(TB) leukemia): > 100 µM | TGI (HOP-18 NSCLC): > 100 µM | TGI (HOP-62 NSCLC): > 100 µM | TGI (HOP-92 NSCLC): 77.1 µM | TGI (HT29 colon): > 100 µM | TGI (IGROV1 ovarian): 51 µM | TGI (K-562 leukemia): > 100 µM | TGI (KM12 colon): > 100 µM | TGI (KM20L2 colon): > 100 µM | TGI (LOX IMVI melanoma): > 100 µM | TGI (LXFL 529 NSCLC): > 100 µM | TGI (M14 melanoma): > 100 µM | TGI (M19-MEL melanoma): > 100 µM | TGI (MALME-3M melanoma): > 100 µM | TGI (MOLT-4 leukemia): > 100 µM | TGI (NCI-H23 lung): > 100 µM | TGI (NCI-H460 lung): > 100 µM | TGI (OVCAR-3 ovarian): > 100 µM | TGI (OVCAR-4 ovarian): 31.9 µM | TGI (OVCAR-5 ovarian): > 100 µM | TGI (OVCAR-8 ovarian): > 100 µM | TGI (RPMI-8226 leukemia): > 100 µM | TGI (RXF 393 renal): 62.6 µM | TGI (RXF-631 renal): > 100 µM | TGI (SF-268 CNS): > 100 µM | TGI (SF-295 CNS): > 100 µM | TGI (SF-539 CNS): > 100 µM | TGI (SK-MEL-2 melanoma): > 100 µM | TGI (SK-MEL-28 melanoma): > 100 µM | TGI (SK-MEL-5 melanoma): 14.7 µM | TGI (SK-OV-3 ovarian): > 100 µM | TGI (SN12C renal): 88.5 µM | TGI (SNB-19 CNS): > 100 µM | TGI (SNB-75 CNS): 69.5 µM | TGI (SNB-78 CNS): > 100 µM | TGI (SR leukemia): > 100 µM | TGI (SW-620 colon): > 100 µM | TGI (TK-10 renal): > 100 µM | TGI (U251 CNS): > 100 µM | TGI (UACC-257 melanoma): > 100 µM | TGI (UACC-62 melanoma): > 100 µM | TGI (UO-31 renal): > 100 µM | TGI (XF 498 CNS): 88.5 µM

COC(=O)C1CC(C(=O)OC)c2nc3cc([N+](=O)[O-])ccc3nc21 (centres undefined)
TGI (786-0 renal): > 100 µM | TGI (A498 renal): > 100 µM | TGI (A549 NSCLC): > 100 µM | TGI (ACHN renal): > 100 µM | TGI (CAKI-1 renal): > 100 µM | TGI (CCRF-CEM leukemia): > 100 µM | TGI (COLO 205 colon): > 100 µM | TGI (DLD-1 colon): > 100 µM | TGI (DMS 114 small cell lung): > 100 µM | TGI (DMS 273 small cell lung): > 100 µM | TGI (EKVX NSCLC): > 100 µM | TGI (HCC-2998 colon): > 59.1 µM | TGI (HCT-116 colon): > 100 µM | TGI (HCT-15 colon): > 100 µM | TGI (HL-60(TB) leukemia): > 86.8 µM | TGI (HOP-18 NSCLC): > 100 µM | TGI (HOP-62 NSCLC): > 100 µM | TGI (HOP-92 NSCLC): > 100 µM | TGI (HT29 colon): > 100 µM | TGI (IGROV1 ovarian): > 100 µM | TGI (K-562 leukemia): > 100 µM | TGI (KM12 colon): > 100 µM | TGI (KM20L2 colon): > 100 µM | TGI (LOX IMVI melanoma): > 31.6 µM | TGI (LXFL 529 NSCLC): > 100 µM | TGI (M14 melanoma): > 100 µM | TGI (M19-MEL melanoma): > 100 µM | TGI (MALME-3M melanoma): > 100 µM | TGI (MOLT-4 leukemia): > 100 µM | TGI (NCI-H226 lung): > 100 µM | TGI (NCI-H23 lung): > 100 µM | TGI (NCI-H460 lung): > 100 µM | TGI (NCI-H522 lung): > 64.7 µM | TGI (OVCAR-3 ovarian): > 100 µM | TGI (OVCAR-4 ovarian): > 100 µM | TGI (OVCAR-5 ovarian): > 100 µM | TGI (OVCAR-8 ovarian): > 100 µM | TGI (RPMI-8226 leukemia): > 100 µM | TGI (RXF 393 renal): > 100 µM | TGI (RXF-631 renal): > 100 µM | TGI (SF-268 CNS): > 100 µM | TGI (SF-295 CNS): > 100 µM | TGI (SF-539 CNS): > 100 µM | TGI (SK-MEL-2 melanoma): > 100 µM | TGI (SK-MEL-28 melanoma): > 100 µM | TGI (SK-MEL-5 melanoma): > 100 µM | TGI (SK-OV-3 ovarian): > 100 µM | TGI (SN12C renal): > 100 µM | TGI (SNB-19 CNS): > 100 µM | TGI (SNB-75 CNS): > 100 µM | TGI (SNB-78 CNS): > 100 µM | TGI (SW-620 colon): > 100 µM | TGI (TK-10 renal): > 100 µM | TGI (U251 CNS): > 100 µM | TGI (UACC-257 melanoma): > 100 µM | TGI (UACC-62 melanoma): > 100 µM | TGI (UO-31 renal): 98.9 µM | TGI (XF 498 CNS): > 100 µM
